Laboratory results reported in ChEMBL document CHEMBL1140338, “Range and sensitivity as descriptors of molecular property spaces in dynamic QSAR analyses” (J Med Chem, 2005).

Columns and labels:
[1] = Binding affinity for alpha 1a adrenoceptor
[2] = Binding affinity for alpha 1d adrenoceptor
[3] = Binding affinity for alpha 1b adrenoceptor

## COc1cccc(OC)c1OCCNCC1COc2ccccc2O1 (stereo unspecified)
[1]
  pK: 9.8
[2]
  pK: 9.6

## COc1ccccc1N1CCN(CCCNc2c(C)c(=O)n(C)c(=O)n2C)CC1
[1]
  pK: 9.2
[3]
  pK: 7.4
[2]
  pK: 8

## COc1cc2nc(N3CCN(C(=O)COc4c(OC)cccc4C(C)C)CC3)nc(N)c2cc1OC
[1]
  pK: 8.72
[3]
  pK: 9.52
[2]
  pK: 8.59

## COc1cc2c(cc1OC)CN(c1cc(N)c3cc(OC)c(OC)cc3n1)CC2
[1]
  pK: 10.4
[3]
  pK: 10.1
[2]
  pK: 10.4

## COC(=O)C1=C(C)NC(C)=C(C(=O)OCCCN2CCC(c3ccccc3)(c3ccccc3)CC2)[C@H]1c1cccc([N+](=O)[O-])c1
[1]
  pK: 9.82
[3]
  pK: 7.26
[2]
  pK: 7

## COc1c(C)c(C)c(O)c(C)c1CN(C)CCOc1cc(C)c(O)cc1C(C)C
[1]
  pK: 9.4
[3]
  pK: 8.92
[2]
  pK: 8.92

## COc1cccc2c1CC[C@H]1CN(CCn3c(=O)[nH]c4c(sc5cccnc54)c3=O)C[C@@H]21
[1]
  pK: 9.66
[3]
  pK: 8.16
[2]
  pK: 9.01

## COc1ccccc1N1CCN(CCCNC(=O)c2cccc3c(=O)c(C)c(-c4ccccc4)oc23)CC1
[1]
  pK: 9
[2]
  pK: 8.6

## COc1cc2nc(N3CCN(C(=O)c4ccco4)[C@H]4CCCC[C@H]43)nc(N)c2cc1OC
[1]
  pK: 7.92
[3]
  pK: 9.89
[2]
  pK: 8.49

## CCCC(=O)N1CCCN(c2nc(N)c3cc(OC)c(OC)cc3n2)CC1
[1]
  pK: 9.3
[3]
  pK: 9
[2]
  pK: 9

## COc1ccccc1N1CCN(CCCCN2C(=O)c3ccccc3C2=O)CC1
[1]
  pK: 8.7
[3]
  pK: 7.82
[2]
  pK: 9.1

## COc1ccccc1N1CCN(CCN(C(=O)C2CCCCC2)c2ccccn2)CC1
[1]
  pK: 7.24
[3]
  pK: 6.73
[2]
  pK: 7.2

## COC(=O)[C@H]1[C@H]2C[C@H]3c4[nH]c5ccccc5c4CCN3C[C@@H]2CC[C@@H]1O
[1]
  pK: 6.85
[3]
  pK: 6.29
[2]
  pK: 6.6

## C[C@H](CN1CCN(c2cc(F)c(F)cc2F)CC1)N1C(=O)CC2(CCCC2)CC1=O
[1]
  pK: 6.53
[3]
  pK: 6.72
[2]
  pK: 8.8

## COc1cccc(OC)c1OCCNCC1CSc2ccccc2O1 (stereo unspecified)
[1]
  pK: 9.7
[3]
  pK: 8.4
[2]
  pK: 9.4

## COc1cc2nc(N(C)CCCNC(=O)C3CCCO3)nc(N)c2cc1OC (stereo unspecified)
[1]
  pK: 8
[3]
  pK: 8
[2]
  pK: 8.5

## COC(=O)C1=C(C)NC(C)=C(C(=O)NCCCN2CCC(c3ccccc3)(c3ccccc3)CC2)C1c1ccc([N+](=O)[O-])cc1 (stereo unspecified)
[1]
  pK: 9.64
[3]
  pK: 7.89
[2]
  pK: 7.18

## C=Cc1sc2ccc(Cl)c3c2c1CN(C)CC3
[1]
  pK: 7.36
[3]
  pK: 7.2
[2]
  pK: 8.28

## CC1=C(C(N)=O)[C@H](c2ccc([N+](=O)[O-])cc2)C(C(=O)NCCCCN2CCC(c3ccccc3)(c3ccccc3)CC2)=C(C)N1
[1]
  pK: 8.72
[3]
  pK: 6.48
[2]
  pK: 6.4

## C[C@H](Cc1cc2c(c(C(N)=O)c1)N(CCCO)CC2)NCCOc1ccccc1OCC(F)(F)F
[1]
  pK: 10.4
[3]
  pK: 7.7
[2]
  pK: 8.7

## COc1cc2c(cc1O)C1Cc3ccc(OC)c(O)c3CN1CC2 (stereo unspecified)
[1]
  pK: 6.21
[3]
  pK: 6.44
[2]
  pK: 7.6

## COc1ccccc1N1CCN(CCN2C(=O)CC3(CCCC3)CC2=O)CC1
[1]
  pK: 6.6
[3]
  pK: 6.2
[2]
  pK: 8.2

## COc1cc2nc(N3CCN(C(=O)C4COc5ccccc5O4)CC3)nc(N)c2cc1OC (stereo unspecified)
[3]
  pK: 9
[2]
  pK: 8.4

## CC(C)(Cc1c[nH]c2ccc(Cl)cc12)NCCOc1ccccc1OCC1CC1
[1]
  pK: 9.22
[3]
  pK: 7.8
[2]
  pK: 7.8

## O=C(NC1CCN(CCc2c[nH]c3ccccc23)CC1)c1ccccc1
[1]
  pK: 8.4
[3]
  pK: 7.4
[2]
  pK: 6.8

## O=C(CCCN1CCC2(CC1)C(=O)NCN2c1ccccc1)c1ccc(F)cc1
[1]
  pK: 8.1
[3]
  pK: 9.3
[2]
  pK: 7.89

## COc1cc2nc(N3CCN(C(=O)C4CCCO4)CC3)nc(N)c2cc1OC (stereo unspecified)
[1]
  pK: 8.2
[2]
  pK: 8.6

## Cc1ccc(N(CC2=NCCN2)c2cccc(O)c2)cc1
[1]
  pK: 8.8
[3]
  pK: 8.1
[2]
  pK: 8.1

## CCC1=C(C(N)=O)[C@H](c2ccc([N+](=O)[O-])cc2)C(C(=O)NCCCN2CCC(c3ccccc3)(c3ccccc3)CC2)=C(COCCN)N1
[1]
  pK: 9.19
[3]
  pK: 6.49
[2]
  pK: 6.4

## Cc1c[nH]c(=O)n(CCCN2CCN(c3ccc(F)cc3OCC(F)(F)F)CC2)c1=O
[1]
  pK: 9
[3]
  pK: 7.1
[2]
  pK: 7
